Data: patent US3940426A, “Process for producing biphenyltetracarboxylic dianhydrides” (UBE Industries, Ltd., priority 1972, dated 1976)

Experiments:
[1] = Solubility of biphenyltetracarboxylic acid isomers in water or an aqueous solvent; format: physicochemical; details: order among the biphenyltetracarboxylic acid isomers; FIG. 2 in water at varying temperatures
Experimental: The solubility was measured by maintaining each of a mixture of 9.35 g of 2,3,3',4'-biphenyltetracarboxylic acid and 10 ml. of water and a mixture of 7.53 g of 3,4,3',4'-biphenyltetracarboxylic acid and 20 ml. of water at a predetermined temperature to dissolve each of the isomers in water, separating the insoluble matter by filtration, drying the filtrate, and weighing it, to thereby obtained the amount of each isomer dissolved at the specified temperature.

[2] = Solubility of biphenyltetracarboxylic dianhydride isomers in aliphatic acid anhydride or ketone; format: physicochemical; details: compared with the 3,4,3',4'-isomer; FIG. 1 in acetic anhydride at varying temperatures
Experimental: Referring to FIG. 1, the ordinate represents the solubility (g/acetic anhydride: 10 ml.) and the abscissa the temperature in °C. The measurement of the solubility was performed by maintaining separate mixtures of 2.5 g of the 2,3,3',4'-isomer and 5 ml. of acetic anhydride and a mixture of 1 g of the 3,4,3',4'-isomer and 20 ml. of acetic anhydride at a predetermined temperature to dissolve each of the isomers in the acetic anhydride, separating the insoluble matter by filtration, drying the filtrate and weighing it, to thereby obtain the amount of the isomer dissolved in […] at the specified temperature.

SMILES | solubility in water or in an aqueous solvent [1] | solubility in an aliphatic acid anhydride or ketone [2]
O=C(O)c1cccc(-c2cccc(C(=O)O)c2C(=O)O)c1C(=O)O [2,3,2',3'-isomer, 2,3,2',3'-biphenyltetracarboxylic acid] | largest solubility in water or in an aqueous solvent | –
O=C(O)c1ccc(-c2cccc(C(=O)O)c2C(=O)O)cc1C(=O)O [2,3,3',4'-biphenyltetracarboxylic acid] | followed by the 2,3,3',4'-isomer | –
O=C1OC(=O)c2cc(-c3cccc4c3C(=O)OC4=O)ccc21 [2,3,3',4'-biphenyltetracarboxylic dianhydride] | – | more soluble in an aliphatic acid anhydride or ketone than the 3,4,3',4'-isomer
O=C(O)c1ccc(-c2ccc(C(=O)O)c(C(=O)O)c2)cc1C(=O)O [3,4,3',4'-biphenyltetracarboxylic acid] | the 3,4,3',4'-isomer in order of decreasing solubility | –
